One data set concerns mice. In words: Analgesic activity, acetic acid writhing. The data set is classed as in vivo. The procedure: The prodrug compounds are administered either transdermally or orally. The parent compounds are administered orally. The number of writhing that occurred when mice are administered the acetic acid solution are counted, and the rate of inhibition based on the control group which was not pretreated with any test compounds is calculated. […] The A group is the control group.
In general terms: Writhing tests count abdominal constrictions after an irritant is injected.

In the next data set the test system is rats. Put plainly: Antipyretic activity, E. coli suspension as pyrogen. In kind it is in vivo. As to conditions: in °C (unit assumed). The procedure:
Rats are administered with sterilized E. coli suspension as a pyrogen. Each group of rats are administered with a prodrug compounds or parent compounds at a dosage specified below. The prodrug compounds are administered either orally or transdermally. The parent compounds are administered orally.

Data set [1] is described as follows: Plasma levels after transdermal administration to hairless mice. As to conditions: for Peak plasma concentration of parent compound after prodrug compound / t, time to peak plasma level of parent compound after prodrug compound: mouse, in vivo; for t, time to peak plasma level after parent compound: parent compound administered (time when taken orally); for Peak plasma concentration after parent compound: parent compound administered, hairless mice. In kind it is in vivo. As for the experimental part:
Tested compounds (20% solution or suspension in 1 mL isopropanol) are administered transdermally to the skin of intact hairless mice. The plasma levels of the parent compounds are determined by HPLC.

For a further data set, the system named is human skin tissue. As to conditions: pH 7.4; for In vitro penetration rate (apparent flux), parent compounds: human, 20 %.
A short description of data set [2]: Solubility in water / aqueous solubility of HPPs and parent drugs. To be noted: for solubility: water; for Solubility in water: product as prepared in Example 1.
The mark [3] stands for this setting: 50 mg/kg transdermally, 60 minutes before acetic acid.
The mark [4] stands for this setting: 100 mg/kg transdermally, 30 min before acetic acid.

Converted amounts (≈) assume the structure as drawn.

The values that follow come from US20210353579A1, “HIGH PENETRATION COMPOSITIONS AND USES THEREOF” (Techfields Pharma Co., Ltd., priority 2006, published 2021).

The term solubility denotes how much of the substance goes into solution per volume.

Turning to “8-chloro-(4-N,N-dimethylaminobutyryloxy-pyridine-2-ylamino-methylidene)-3-methyl-2,2-dioxo-2λ^6,7-dithia-3-azabicyclo[4,3,0]nona-8,10-dien-5-one.HCl”, in the data set with mice (setting [3]), the “% (rate of writhing inhibition)” value is listed as 50% and the “No. of Writhing” value was determined as 17.5. In addition, in the data set with rats (25 mg/kg transdermally), the “body temperature, t = 0 min” value is recorded as 37.53 ± 0.05; the “body temperature, t = 90 min” value is reported as 36.57 ± 0.05; the “body temperature, t = 180 min” value was 36.52 ± 0.07; the “body temperature, t = 270 min” value is 36.51 ± 0.06.

As to `CN(C)CCCC(=O)OC1=C(C(=O)Nc2ccccn2)N(C)S(=O)(=O)c2ccsc21.Cl` [4-N,N-dimethylaminobutyryloxy-2-methyl-N-2-pyridinyl-2H-thieno[2,3-e]-1,2-thiazine-3-carboxamide 1,1-dioxide.HCl], in data set [1], the “Peak plasma concentration of parent compound after prodrug compound” value is reported as 20 mg/L. Besides, in the data set on mice (setting [3]), the “% (rate of writhing inhibition)” value came out at 53% and the “No. of Writhing” value was found to be 16.9. In the data set with rats (25 mg/kg transdermally), the “body temperature, t = 0 min” value is given as 37.54 ± 0.06; the “body temperature, t = 90 min” value is recorded as 36.61 ± 0.06; the “body temperature, t = 180 min” value was found to be 36.58 ± 0.08; the “body temperature, t = 270 min” value turned out to be 36.55 ± 0.05. Also, the “In vitro penetration rate (apparent flux), prodrug compounds” value with human skin tissue was 1800 μg/cm^2/h.

As for `O=C(O)COc1nn(Cc2ccccc2)c2ccccc12` [Bendazac, bendazac, reference compound], in data set [1], the “t, time to peak plasma level after parent compound” value (from here on “t, time … after parent compound”) is 1 to 2 h and the “Peak plasma concentration after parent compound” value worked out at 0.1 mg/L. In data set [2], the solubility came to 0.1 mg/mL (≈ 0.354 mM).

`O=C(O)CCC(=O)c1ccc(-c2ccccc2)cc1` [Fenbufen, fenbufen, reference compound]: in data set [1], the “t, time … after parent compound” value lay within 2 to 4 h and the “Peak plasma concentration after parent compound” value worked out at 10 mg/L. For the same compound, the “In vitro penetration rate (apparent flux), parent compounds” value with human skin tissue turned out to be 40 μg/cm^2/h.

For the compound `CC(C)Cc1ccc(CC(=O)O)cc1` [Ibufenac], in data set [2], the solubility came out at 0.1 mg/mL (≈ 0.52 mM).

For `CC(=O)O.CCN(CC)CCNC(=O)CCc1nc(-c2ccccc2)c(-c2ccccc2)o1` [N-diethylaminoethyl 4,5-Diphenyl-2-oxazole propionamide.AcOH], the Solubility in water in data set [2] stood at 400 mg/mL.

In the case of `CC(=O)O.CN(C)CCNC(=O)Cc1ccccc1Nc1c(Cl)cccc1Cl` [N-dimethylaminoethyl 2[(2,6-dichlorophenyl)amino] benzene acetamide.AcOH], in data set [2], the Solubility in water stood at 450 mg/mL.

In the case of `CC(=O)O.CN(C)CCSC(=O)Cc1ccccc1Nc1c(Cl)cccc1Cl` [S-dimethylaminoethyl 2[(2,6-dichlorophenyl)amino] benzene acetate.AcOH], the Solubility in water in data set [2] is 410 mg/mL.

With `CN1C(C(=O)Nc2ccccn2)=C(O)c2sccc2S1(=O)=O` [Tenoxicam, tenoxicam, reference compound], in data set [1], the “t, time … after parent compound” value was 2 to 4 h and the “Peak plasma concentration after parent compound” value is given as 0.1 mg/L. The “In vitro penetration rate (apparent flux), parent compounds” value in the data set on human skin tissue is under 1 μg/cm^2/h.

As to `CC(=O)O.CCN(CC)CCOC(=O)C(C)c1ccc(-c2ccccc2)c(F)c1` (stereo not drawn) [diethylaminoethyl 2-(2-fluoro-4-biphenylyl)propionate.AcOH], in data set [1], the “Peak plasma concentration of parent compound after prodrug compound” value is recorded as 2000 mg/L and the “t, time to peak plasma level of parent compound after prodrug compound” value (from here on “t, time … after prodrug compound”) is listed as 50 min. Further, in the data set with mice (setting [4]), the “% (rate of writhing inhibition)” value was 55% and the “No. of Writhing” value turned out to be 15.6. Besides, in the data set with rats (100 mg/kg transdermally), the “body temperature, t = 0 min” value stood at 37.29 ± 0.07; the “body temperature, t = 90 min” value came out at 36.82 ± 0.06; the “body temperature, t = 180 min” value turned out to be 36.70 ± 0.05; the “body temperature, t = 270 min” value is recorded as 36.67 ± 0.08. Also, in the data set with human skin tissue, the “In vitro penetration rate (apparent flux), prodrug compounds” value worked out at 3500 μg/cm^2/h.

As to `CC(=O)O.CCN(CC)CCOC(=O)C(C)c1ccc(CC2CCCC2=O)cc1` (stereo not drawn) [diethylaminoethyl 2-[4-(2-oxocyclopentyl-methyl)phenyl]propionate.AcOH], in data set [1], the “Peak plasma concentration of parent compound after prodrug compound” value was 2000 mg/L and the “t, time … after prodrug compound” value is 50 min. In the data set with mice (setting [4]), the “% (rate of writhing inhibition)” value turned out to be 55% and the “No. of Writhing” value is 15.7. Further, in the data set with rats (100 mg/kg transdermally), the “body temperature, t = 0 min” value was found to be 37.25 ± 0.06; the “body temperature, t = 90 min” value is 36.71 ± 0.05; the “body temperature, t = 180 min” value stood at 36.65 ± 0.08; the “body temperature, t = 270 min” value was 36.64 ± 0.07. Further, the “In vitro penetration rate (apparent flux), prodrug compounds” value with human skin tissue was 3400 μg/cm^2/h.

With `CCN(CC)CCOC(=O)c1ccccc1Nc1cccc(Cl)c1C` [diethylaminoethyl 2-[(3-chloro-2-methylphenyl)amino]benzoate], the solubility in data set [2] was over 400 mg/mL.

For the compound `CC(=O)O.CCN(CC)CCOC(=O)CCC(=O)c1ccc(-c2ccccc2)cc1` [diethylaminoethyl 3-(4-biphenylylcarbonyl)propionate.AcOH], in data set [1], the “Peak plasma concentration of parent compound after prodrug compound” value stood at 2000 mg/L and the “t, time … after prodrug compound” value was found to be 50 min. Moreover, in the data set with mice (setting [4]), the “% (rate of writhing inhibition)” value worked out at 59% and the “No. of Writhing” value was 14.2. For the same compound, in the data set with rats (100 mg/kg transdermally), the “body temperature, t = 0 min” value is 37.23 ± 0.06; the “body temperature, t = 90 min” value is 36.81 ± 0.05; the “body temperature, t = 180 min” value is 36.65 ± 0.08; the “body temperature, t = 270 min” value amounted to 36.61 ± 0.07. Moreover, the “In vitro penetration rate (apparent flux), prodrug compounds” value with human skin tissue came out at 3600 μg/cm^2/h.

As to `CC(=O)O.CCN(CC)CCOC(=O)C(C)c1ccc(N2CC=CC2)c(Cl)c1` (stereo not drawn) [diethylaminoethyl 3-chloro-4-(2,5-dihydro-1H-pyrrol-1-yl)-α-methyl benzeneacetate.AcOH], in data set [1], the “Peak plasma concentration of parent compound after prodrug compound” value amounted to 2000 mg/L and the “t, time … after prodrug compound” value is given as 50 min. Further, in the data set with mice (setting [4]), the “% (rate of writhing inhibition)” value worked out at 60% and the “No. of Writhing” value is recorded as 14.0. Moreover, in the data set on rats (100 mg/kg transdermally), the “body temperature, t = 0 min” value turned out to be 37.27 ± 0.06; the “body temperature, t = 90 min” value worked out at 36.68 ± 0.05; the “body temperature, t = 180 min” value amounted to 36.62 ± 0.08; the “body temperature, t = 270 min” value amounted to 36.58 ± 0.07. In addition, the “In vitro penetration rate (apparent flux), prodrug compounds” value in the data set on human skin tissue is on record as 3500 μg/cm^2/h.

On to `CC(=O)O.CCN(CC)CCOC(=O)CCc1nc(-c2ccccc2)c(-c2ccccc2)o1` [diethylaminoethyl 4,5-Diphenyl-2-oxazole propionate.AcOH], for which, in data set [1], the “Peak plasma concentration of parent compound after prodrug compound” value came to 2000 mg/L and the “t, time … after prodrug compound” value was found to be 50 min. In the data set with mice (setting [4]), the “% (rate of writhing inhibition)” value was 55% and the “No. of Writhing” value came to 15.7. Moreover, in the data set with rats (100 mg/kg transdermally), the “body temperature, t = 0 min” value was found to be 37.24 ± 0.07; the “body temperature, t = 90 min” value was found to be 36.82 ± 0.06; the “body temperature, t = 180 min” value worked out at 36.70 ± 0.05; the “body temperature, t = 270 min” value was 36.67 ± 0.08. Besides, the “In vitro penetration rate (apparent flux), prodrug compounds” value in the data set on human skin tissue came to 4000 μg/cm^2/h.

With `CC(=O)O.CCN(CC)CCOC(=O)CC(O)c1ccc(-c2ccc(Cl)cc2)o1` (stereo not drawn) [diethylaminoethyl 5-(4-chlorophenyl)-beta-hydroxy-2-furanpropionate.AcOH], in data set [1], the “Peak plasma concentration of parent compound after prodrug compound” value was 2000 mg/L and the “t, time … after prodrug compound” value came to 50 min. Also, in the data set with mice (setting [4]), the “% (rate of writhing inhibition)” value was determined as 55% and the “No. of Writhing” value was 15.6. Moreover, in the data set on rats (100 mg/kg transdermally), the “body temperature, t = 0 min” value amounted to 37.29 ± 0.07; the “body temperature, t = 90 min” value is 36.82 ± 0.06; the “body temperature, t = 180 min” value is 36.60 ± 0.05; the “body temperature, t = 270 min” value is 36.67 ± 0.08. For the same compound, the “In vitro penetration rate (apparent flux), prodrug compounds” value in the data set with human skin tissue was 4100 μg/cm^2/h.

For `CC(=O)O.CCN(CC)CCOC(=O)C1CCn2c(C(=O)c3ccccc3)ccc21` (stereo not drawn) [diethylaminoethyl 5-benzoyl-2,3-dihydro-1H-pyrrolizine-1-carboxylate.AcOH], in data set [1], the “Peak plasma concentration of parent compound after prodrug compound” value was determined as 2000 mg/L and the “t, time … after prodrug compound” value was found to be 50 min. In the data set on mice (setting [4]), the “% (rate of writhing inhibition)” value was determined as 54% and the “No. of Writhing” value amounted to 16.1. In the data set with rats (100 mg/kg transdermally), the “body temperature, t = 0 min” value is reported as 37.22 ± 0.06; the “body temperature, t = 90 min” value is 36.65 ± 0.06; the “body temperature, t = 180 min” value amounted to 36.58 ± 0.08; the “body temperature, t = 270 min” value was 36.51 ± 0.07. In addition, the “In vitro penetration rate (apparent flux), prodrug compounds” value in the data set on human skin tissue was determined as 3800 μg/cm^2/h.

For the compound `CC(=O)O.CCN(CC)CCOC(=O)C(C)c1ccc(C(=O)c2ccccc2)s1` (stereo not drawn) [diethylaminoethyl 5-benzoyl-α-methyl-2-thiopheneacetate.AcOH], in data set [1], the “Peak plasma concentration of parent compound after prodrug compound” value came out at 2000 mg/L and the “t, time … after prodrug compound” value turned out to be 50 min. Further, in the data set with mice (setting [4]), the “% (rate of writhing inhibition)” value is recorded as 62% and the “No. of Writhing” value is reported as 13.2. Also, in the data set with rats (100 mg/kg transdermally), the “body temperature, t = 0 min” value is on record as 37.26 ± 0.06; the “body temperature, t = 90 min” value is recorded as 36.65 ± 0.06; the “body temperature, t = 180 min” value was determined as 36.58 ± 0.08; the “body temperature, t = 270 min” value came out at 36.36 ± 0.07. Moreover, the “In vitro penetration rate (apparent flux), prodrug compounds” value in the data set on human skin tissue was 4200 μg/cm^2/h.

Take `CC(=O)O.CCN(CC)CCOC(=O)Cc1ccc(CC(C)C)cc1` [diethylaminoethyl p-isobutylphenylacetate.AcOH]: the “Solubility of HPP” value in data set [2] (medium not given) was over 250 mg/mL.

As to `Cc1c(Cl)cccc1Nc1ccccc1C(=O)O` [tolfenamic acid], the solubility in data set [2] was under 0.1 mg/mL.
